Source: ChEMBL document CHEMBL1126551, “Three-dimensional quantitative structure-activity relationships of 5-HT receptor binding data for tetrahydropyridinylindole derivatives: a comparison of the Hansch and CoMFA methods” (J Med Chem, 1993)

Biological target: T1, 5-hydroxytryptamine receptor 1A (Rattus norvegicus, UniProt P19327)
T1 sequence (P19327 whole entry): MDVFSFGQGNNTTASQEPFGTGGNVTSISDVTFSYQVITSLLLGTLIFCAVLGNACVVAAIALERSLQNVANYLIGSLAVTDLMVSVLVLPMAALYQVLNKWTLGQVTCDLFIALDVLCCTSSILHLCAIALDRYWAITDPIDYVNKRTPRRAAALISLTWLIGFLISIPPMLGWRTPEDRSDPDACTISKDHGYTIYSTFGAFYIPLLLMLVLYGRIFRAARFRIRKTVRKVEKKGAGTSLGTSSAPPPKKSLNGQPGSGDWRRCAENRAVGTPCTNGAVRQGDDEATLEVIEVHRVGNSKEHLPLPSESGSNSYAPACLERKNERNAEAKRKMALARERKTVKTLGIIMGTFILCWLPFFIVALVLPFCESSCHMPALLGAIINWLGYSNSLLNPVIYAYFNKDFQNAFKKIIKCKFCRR
Description: Binding affinity towards 5-hydroxytryptamine 1A receptor using [3H]8-OH-DPAT as radioligand.

Row | SMILES | Ki [nM]
1 | CN1CC=C(c2c[nH]c3ccc([Si](C)(C)C)cc23)CC1 | 165
2 | COc1ccc2[nH]cc(C3CCN(C)CC3)c2c1 | 138
3 | CCN1CC=C(c2c[nH]c3ccc(C(=O)OC)cc23)CC1 | 384
4 | CCCN1CC=C(c2c[nH]c3ccc(OC)cc23)CC1 | 363
5 | CCOC(=O)c1ccc2[nH]cc(C3=CCN(C)CC3)c2c1 | 36.1
6 | CC(=O)Nc1ccc2[nH]cc(C3=CCN(C)CC3)c2c1 | 77.6
7 | CN1CC=C(c2c[nH]c3ccccc23)CC1 | 146
8 | CN1CC=C(c2c[nH]c3ccc(O)cc23)CC1 | 61.7
9 | CN1CC=C(c2c[nH]c3ccc(N4C(=O)c5ccccc5C4=O)cc23)CC1 | 377
10 | CN1CC=C(c2c[nH]c3ccc(-c4ccccn4)cc23)CC1 | 25.1
11 | CCCN1CC=C(c2c[nH]c3ccccc23)CC1 | 556
12 | CN1CC=C(c2c[nH]c3ccc(-c4ccc(F)cc4)cc23)CC1 | 69
13 | CN1CC=C(c2c[nH]c3ccc(NS(C)(=O)=O)cc23)CC1 | 692
14 | CN1CC=C(c2c[nH]c3ccc(Br)cc23)CC1 | 11
15 | CN1CC=C(c2c[nH]c3ccc(-c4cccs4)cc23)CC1 | 19
16 | COC(=O)c1ccc2[nH]cc(C3=CCN(C)CC3)c2c1 | 19.4
17 | C1=C(c2c[nH]c3ccccc23)CCNC1 | 189
18 | CC(=O)Oc1ccc2[nH]cc(C3=CCN(C)CC3)c2c1 | 81.3
19 | CC(O)c1ccc2[nH]cc(C3=CCN(C)CC3)c2c1 (stereo unspecified) | 221
20 | CN1CC=C(c2c[nH]c3ccc([S+](C)[O-])cc23)CC1 (stereo unspecified) | 105
21 | CCCN1CC=C(c2c[nH]c3ccc(C(N)=O)cc23)CC1 | 17
22 | CC(=O)c1ccc2[nH]cc(C3=CCN(C)CC3)c2c1 | 23
23 | CCCN1CC=C(c2c[nH]c3ccc(C#N)cc23)CC1 | 303

Row | SMILES | Ki [nM]
24 | CN1CC=C(c2cn(Cc3ccccc3)c3ccccc23)CC1 | 10000
25 | CN1CC=C(c2c[nH]c3ccc(-c4ccncc4)cc23)CC1 | 74.1
26 | CN1CC=C(c2c[nH]c3ccc(Cl)cc23)CC1 | 189
27 | O=[N+]([O-])c1ccc2[nH]cc(C3=CCNCC3)c2c1 | 64.6
28 | CN1CC=C(c2c[nH]c3ccc(OCc4ccccc4)cc23)CC1 | 111
29 | CN1CC=C(c2c[nH]c3ccc(C(N)=O)cc23)CC1 | 5.3
30 | CN1CC=C(c2c[nH]c3ccc([N+](=O)[O-])cc23)CC1 | 21.1
31 | CN1CC=C(c2c[nH]c3ccc(C#N)cc23)CC1 | 55
32 | CN1CC=C(c2c[nH]c3ccc(-c4ccccc4)cc23)CC1 | 55
33 | COc1ccc2[nH]c(C)c(C3=CCN(C)CC3)c2c1 | 345
34 | C1=C(c2c[nH]c3ccccc23)CCN(Cc2ccccc2)C1 | 923
35 | COc1ccc2[nH]cc(C3=CCN(C)CC3)c2c1 | 21.1
36 | CN1CC=C(c2c[nH]c3ccc(C(C)(C)O)cc23)CC1 | 187
37 | CCCN1CC=C(c2c[nH]c3ccc(NC(C)=O)cc23)CC1 | 37
38 | CN1CC=C(c2c[nH]c3ccc(CO)cc23)CC1 | 126
39 | CSc1ccc2[nH]cc(C3=CCN(C)CC3)c2c1 | 23
40 | CN1CC=C(c2c[nH]c3ccc(S(C)(=O)=O)cc23)CC1 | 188
41 | CN1CCC(c2c[nH]c3ccccc23)(c2c[nH]c3ccccc23)CC1 | 550
42 | CN1CC=C(c2c[nH]c3ccc(C4OCCO4)cc23)CC1 | 87.9
43 | CN1CCC(c2c[nH]c3ccccc23)CC1 | 513
44 | CN1CC=C(c2c[nH]c3ccc(-c4ccsc4)cc23)CC1 | 25.1
45 | Cc1ccc2[nH]cc(C3=CCN(C)CC3)c2c1 | 146
46 | CN1CC=C(c2c[nH]c3ccc(-c4cccnc4)cc23)CC1 | 200
